Reference: patent US20210400977A1, “META-DIAMIDE COMPOUNDS FOR CONTROLLING INVERTEBRATE PESTS” (FMC Corporation, priority 2018, published 2021)

Experiments:
[1] = system: potato leafhopper (Empoasca fabae (Harris)); assay: Test D: control of potato leafhopper through contact and/or systemic means; type: in vivo; settings: 144 h, assessed after 6 days; for mortality at 50 ppm: sprayed at 50 ppm; for mortality at 250 ppm: sprayed at 250 ppm
Protocol: (§1) Test compounds were formulated using a solution containing 10% acetone, 90% water and 300 ppm Activator 90® non-ionic surfactant (Loveland Products, Loveland, Colo., USA). The formulated compounds were applied in 1 mL of liquid through an atomizer nozzle positioned 1.27 cm (0.5 inches) above the top of each test unit. Test compounds were sprayed at the rates indicated, and each test was replicated three times.
For evaluating control of potato leafhopper (Empoasca fabae (Harris)) through contact and/or systemic means, the test unit consisted of a small open container with a 5-6-day-old Soleil bean plant (primary leaves emerged) inside. White sand was added to the top of the soil, and one of the primary leaves was excised prior to application of the test compound.
Test compounds were formulated and sprayed at 250 and/or 50 ppm. After spraying of the formulated test compound, the test units were allowed to dry for 1 hour before they were post-infested with 5 potato leafhoppers (18-to-21-day-old adults). A black, screened cap was placed on the top of the test unit, and the test units were held for 6 days in a growth chamber at 20° C. and 70% relative humidity. Each test unit was then visually assessed for insect mortality.

[2] = system: green peach aphid (Myzus persicae (Sulzer)); assay: Test E: control of green peach aphid through contact and/or systemic means; type: in vivo; settings: 144 h, assessed after 6 days; for mortality at 50 ppm: sprayed at 50 ppm; for mortality at 250 ppm: sprayed at 250 ppm
Protocol: as §1
For evaluating control of green peach aphid (Myzus persicae (Sulzer)) through contact and/or systemic means, the test unit consisted of a small open container with a 12-15-day-old radish plant inside. This was pre-infested by placing on a leaf of the test plant 30-40 aphids on a piece of leaf excised from a culture plant (cut-leaf method). The aphids moved onto the test plant as the leaf piece desiccated. After pre-infestation, the soil of the test unit was covered with a layer of sand.
Test compounds were formulated and sprayed at 250 and/or 50 ppm. After spraying of the formulated test compound, each test unit was allowed to dry for 1 hour and then a black, screened cap was placed on top. The test units were held for 6 days in a growth chamber at 19-21° C. and 50-70% relative humidity. Each test unit was then visually assessed for insect mortality.

[3] = system: cotton melon aphid (Aphis gossypii (Glover)); assay: Test F: control of cotton melon aphid through contact and/or systemic means; type: in vivo; settings: 144 h, assessed after 6 days; for mortality at 50 ppm: sprayed at 50 ppm; for mortality at 250 ppm: sprayed at 250 ppm
[4] = system: sweetpotato whitefly (Bemisia tabaci (Gennadius)); assay: Test G: control of sweetpotato whitefly through contact and/or systemic means; type: in vivo; settings: 312 h, assessed after 13 days; for mortality at 50 ppm: sprayed at 50 ppm; for mortality at 250 ppm: sprayed at 250 ppm
Protocol: as §1
For evaluating control of the sweetpotato whitefly (Bemisia tabaci (Gennadius)) through contact and/or systemic means, the test unit consisted of a small open container with a 12-14-day-old cotton plant or 7-9-day-old soybean plant inside. Prior to the spray application, both cotyledons were removed from the plant, leaving one true leaf for the assay. Adult whiteflies were allowed to lay eggs on the plant and then were removed from the test unit. Cotton or soybean plants infested with at least 15 eggs were submitted to the test for spraying.
Test compounds were formulated and sprayed at 250 and/or 50 ppm. After spraying, the test units were allowed to dry for 1 hour. The cylinders were then removed, and the units were taken to a growth chamber and held for 13 days at 28° C. and 50-70% relative humidity. Each test unit was then visually assessed for insect mortality.

Row | Compound | mortality at 50 ppm [1] [%] | mortality at 50 ppm [2] [%] | mortality at 50 ppm [3] [%] | mortality at 50 ppm [4] [%] | melting point [°C] | mortality at 250 ppm [4] [%] | mortality at 250 ppm [1] [%] | mortality at 250 ppm [2] [%] | mortality at 250 ppm [3] [%]
1 | O=C(CC(F)(F)F)NCc1cc(NC(=O)C2C(c3cc(F)c(Cl)c(F)c3)C2(Cl)Cl)ccc1F (stereo not drawn) [Compound 169, 2,2-dichloro-3-(4-chloro-3,5-difluorophenyl)-N-[4-fluoro-3-[[(3,3,3-trifluoro-1-oxopropyl)amino]methyl]phenyl]cyclopropanecarboxamide] | ≥ 80 | ≥ 80 | ≥ 80 | – | – | – | – | – | –
2 | O=C(CC(F)(F)F)NCc1c(F)ccc(NC(=O)C2C(c3ccc(F)c(Cl)c3)C2(Cl)Cl)c1F (stereo not drawn) [Compound 170, 2,2-dichloro-3-(3-chloro-4-fluorophenyl)-N-[2,4-difluoro-3-[[(3,3,3-trifluoro-1-oxopropyl)amino]methyl]phenyl]cyclopropanecarboxamide] | ≥ 80 | ≥ 80 | ≥ 80 | – | – | – | – | – | –
3 | O=C(CC(F)(F)F)NCc1cc(NC(=O)C2C(c3ccc(F)c(C(F)(F)F)c3)C2(Cl)Cl)ccc1F (stereo not drawn) [Compound 78, 2,2-dichloro-3-[4-fluoro-3-(trifuoromethyl)phenyl]-N-[4-fluoro-3-[[(3,3,3-trifluoro-1-oxopropyl)amino]methyl]phenyl]cyclopropanecarboxamide] | ≥ 80 | ≥ 80 | ≥ 80 | ≥ 70 | – | – | – | – | –
4 | CC(=O)NCc1ccc(Cl)c(NC(=O)C2C(c3cc(Cl)cc(Cl)c3)C2(Cl)Cl)c1 (stereo not drawn) [Compound 135] | – | – | – | – | 101 to 105 | – | – | – | –
5 | O=C(CC(F)(F)F)NCc1cc(NC(=O)C2C(c3ccc(Cl)c(Cl)c3)C2(Cl)Cl)ccc1F (stereo not drawn) [Compound 79, 2,2-dichloro-3-(3,4-dichlorophenyl)-N-[4-fluoro-3-[[(3,3,3-trifluoro-1-oxopropyl)amino]methyl]phenyl]cyclopropanecarboxa-mide] | ≥ 80 | – | ≥ 80 | – | – | ≥ 70 | – | – | –
6 | CCC(=O)NC(C)c1cc(NC(=O)C2C(c3cc(Cl)cc(Cl)c3)C2(Cl)Cl)ccc1Cl (stereo not drawn) [Compound 86] | ≥ 80 | – | – | – | – | – | – | – | –
7 | CC(=O)NCc1nc(NC(=O)C2C(c3ccc(F)c(Cl)c3)C2(Cl)Cl)ccc1Br (stereo not drawn) [Compound 247] | – | – | – | – | 170 to 173 | – | – | – | –
8 | O=C(NCc1cc(NC(=O)C2C(c3cc(Cl)cc(Cl)c3)C2(Cl)Cl)ccc1Cl)C1CC1 (stereo not drawn) [Compound 62, 2,2-dichloro-N-[4-chloro-3-[(cyclopropanecarbonylamino)methyl]phenyl]-3-(3,5-dichlorophenyl)cyclopropane-1-carboxamide] | ≥ 80 | ≥ 80 | ≥ 80 | – | – | ≥ 70 | ≥ 80 | ≥ 80 | ≥ 80
9 | O=C(CC(F)(F)F)NCc1cc(NC(=O)C2C(c3cc(F)c(F)c(F)c3)C2(Cl)Cl)ccc1Cl (stereo not drawn) [Compound 118, 2,2-dichloro-N-[4-chloro-3-[[(3,3,3-trifluoro-1-oxopropyl)amino]methyl]phenyl]-3-(3,4,5-trifluorophenyl)cyclopropanecarboxamide] | ≥ 80 | – | – | – | – | ≥ 70 | – | – | –
10 | O=C(Nc1ccc(Cl)c(CNC(=O)C(F)(F)F)c1)C1C(c2ccc(Cl)c(Cl)c2)C1(Cl)Cl (stereo not drawn) [Compound 175, 2,2-dichloro-N-[4-chloro-3-[[(2,2,2-trifluoroacetyl)amino]methyl]phenyl]-3-(3,4-dichlorophenyl)cyclopropanecarboxamide] | ≥ 80 | ≥ 80 | ≥ 80 | – | – | – | – | – | –
11 | O=C(NCc1cc(NC(=O)C2C(c3ccc(F)c(C(F)(F)F)c3)C2(Cl)Cl)ccc1F)C1CC1 (stereo not drawn) [Compound 77, 2,2-dichloro-N-[3-[[(cyclopropylcarbonyl)amino]methyl]-4-fluorophenyl]-3-[4-fluoro-3-(trifluoromethyl)phenyl]cyclopropanecarboxamide] | ≥ 80 | ≥ 80 | ≥ 80 | ≥ 70 | – | ≥ 70 | – | – | –
12 | CCC(=O)NCc1cc(NC(=O)C2C(c3cc(Cl)cc(Cl)c3)C2(Cl)Cl)ccc1Cl (stereo not drawn) [Compound 147] | ≥ 80 | ≥ 80 | ≥ 80 | ≥ 70 | – | ≥ 70 | ≥ 80 | ≥ 80 | ≥ 80
13 | O=C(NCc1cc(NC(=O)C2C(c3cc(Cl)cc(Cl)c3)C2(F)F)ccc1Cl)C1CC1 (stereo not drawn) [Compound 48] | ≥ 80 | – | – | – | – | – | ≥ 80 | – | ≥ 80
14 | O=C(Nc1ccc(Cl)c(CNC(=O)C(F)(F)F)c1)C1C(c2ccc(F)c(C(F)(F)F)c2)C1(Cl)Cl (stereo not drawn) [Compound 174, 2,2-dichloro-N-[4-chloro-3-[[(2,2,2-trifluoroacetyl)amino]methyl]phenyl]-3-[4-fluoro-3-(trifluoromethyl)phenyl]cyclopropanecarboxamide] | ≥ 80 | ≥ 80 | ≥ 80 | – | – | ≥ 70 | – | – | –
15 | O=C(Nc1ccc(Cl)c(CNC(=O)C(F)(F)F)c1)C1C(c2ccc(F)c(Cl)c2)C1(Cl)Cl (stereo not drawn) [Compound 19, 2,2-dichloro-3-(3-chloro-4-fluorophenyl)-N-[4-chloro-3-[[(2,2,2-trifluoroacetyl)amino]methyl]phenyl]cyclopropanecarboxamide] | ≥ 80 | ≥ 80 | ≥ 80 | ≥ 70 | – | ≥ 70 | ≥ 80 | ≥ 80 | ≥ 80
16 | CCC(=O)NCc1cc(NC(=O)C2C(c3cc(Cl)cc(Cl)c3)C2(Cl)Cl)ccc1F (stereo not drawn) [Compound 55, 2,2-dichloro-3-(3,5-dichlorophenyl)-N-[4-fluoro-3-[(propanoylamino)methyl]phenyl]cyclopropane-1-carboxamide] | ≥ 80 | ≥ 80 | ≥ 80 | – | – | – | ≥ 80 | ≥ 80 | ≥ 80
17 | CC(NC(=O)C1CC1)c1cc(NC(=O)C2C(c3cc(Cl)cc(Cl)c3)C2(Cl)Cl)ccc1Cl (stereo not drawn) [Compound 87] | ≥ 80 | – | – | – | – | – | – | – | –
18 | O=C(NCc1cc(NC(=O)C2C(c3cc(Cl)cc(Cl)c3)C2(Cl)Cl)ccc1Cl)C1CC1 (stereo not drawn) [Compound 148] | – | – | – | ≥ 70 | – | – | – | – | –
19 | O=C(CC(F)(F)F)NCc1cc(NC(=O)C2C(c3cc(F)cc(Cl)c3)C2(Cl)Cl)ccc1F (stereo not drawn) [Compound 129, 2,2-dichloro-3-(3-chloro-5-fluorophenyl)-N-[4-fluoro-3-[[(3,3,3-trifluoro-1-oxopropyl)amino]methyl]phenyl]cyclopropanecarboxamide] | ≥ 80 | ≥ 80 | ≥ 80 | ≥ 70 | – | ≥ 70 | – | – | –
20 | O=C(NCc1cc(NC(=O)C2C(c3ccc(F)c(C(F)(F)F)c3)C2(Cl)Cl)ccc1Cl)C1CC1 (stereo not drawn) [Compound 39, 2,2-dichloro-N-[4-chloro-3-[[(cyclopropylcarbonyl)amino]methyl]phenyl]-3-[4-fluoro-3-(trifluoromethyl)phenyl]cyclopropanecarboxamide] | ≥ 80 | ≥ 80 | ≥ 80 | ≥ 70 | – | ≥ 70 | ≥ 80 | ≥ 80 | ≥ 80
21 | CC(=O)NCc1cc(NC(=O)C2C(c3cc(Cl)cc(Cl)c3)C2(F)F)ccc1Cl (stereo not drawn) [Compound 47] | ≥ 80 | – | ≥ 80 | – | – | – | ≥ 80 | ≥ 80 | ≥ 80
22 | O=C(CC(F)(F)F)NCc1cc(NC(=O)C2C(c3ccc(F)c(C(F)(F)F)c3)C2(Cl)Cl)ccc1Cl (stereo not drawn) [Compound 116, 2,2-dichloro-N-[4-chloro-3-[[(3,3,3-trifluoro-1-oxopropyl)amino]methyl]phenyl]-3-[4-fluoro-3-(trifluoromethyl)phenyl]cyclopropanecarboxamide] | ≥ 80 | – | – | – | – | – | – | – | –
23 | O=C(NCc1c(F)ccc(NC(=O)C2C(c3ccc(F)c(Cl)c3)C2(Cl)Cl)c1F)C1CC1 (stereo not drawn) [Compound 164, 2,2-dichloro-3-(3-chloro-4-fluorophenyl)-N-[3-[[(cyclopropylcarbonyl)amino]methyl]-2,4-difluorophenyl]cyclopropanecarboxamide] | ≥ 80 | – | – | – | – | – | – | – | –
